Measured values from US11753635B2, “Methods and systems and related compositions for mixtures separation with a solid matrix” (CALIFORNIA INSTITUTE OF TECHNOLOGY, priority 2017, dated 2023).

Assays:
[1] = system: LAMP reaction on lambda phage DNA; experiment: LAMP with contaminants (Example 4); type: biochemical; conditions: 10% additive (1 uL in 10 uL reaction)
Method: LAMP reactions were carried out using standard conditions provided by NEB with slight modifications. LAMP solutions were provided by NEB unless otherwise noted. The final solution contained 1× Isothermal Amplification Buffer I, 1.4 mM dNTPs, 7 mM MgSO4 (5 mM+2 mM in buffer), WarmStart Bst 2.0 (320 U/mL), 1 mg/mL BSA (Ambion) Lambda phage LAMP primers (standard desalted, Integrated DNA Technologies) at concentrations 0.2 uM F3/B3, 1.6 uM FIP/BIP, 0.4 uM LoopF/B as previously developed by Goto in 2009 were used. Reactions were made to a total of 10 uL comprised of 5 uL concentrated reaction mix and 5 uL of purified nucleic acids from the various extraction conditions (NF—H2O for negative control). For positive controls, 5 uL purified lambda phage DNA ([…]) was added to each reaction and for 5 uL template from nucleic acid extractions or each sample was tested in triplicate (n=3) and solutions were made to either 9 uL or 10 uL. The LAMP reaction was carried out by heating to 68° C. and all of the wells were tracked in real-time (image every 35 s) on the BioRad CFX-96 system. Samples were deemed negative if they […] over 30 min. Cycle times were determined automatically using the BioRad analysis software and converted to time-to-positive in minutes. […]

[2] = cited from earlier work

SMILES	Water solubility at 25° C. [2]	other results
CCO [ethanol, reference compound]	–	Inhibition of the LAMP reaction ([1]; no amplification for at least 30 min): completely inhibits the LAMP reaction
CCCCCCCCCCCCCO [1 tridecanol]	–	Water solubility at 25° C. (in words) ([2]; explained as a solubility of 1 g per 10 L of solvent): practically insoluble (a
CCCCCO [1 pentanol]	2.2 g/100 mL	–
CCCCCCCCO [1-octanol]	0.03 g/100 mL	Delay in LAMP (time-to-positive) ([1]; versus 10 uL positive control): 1.4 min
CCCCCCCCCCCCCCCCCCCCO [Arachidyl Alcohol (20 ol), Arachidyl Alcohol]	0.151 ug/100 mL	–
CCCCC(O)CCCC [5-nonanol]	0.046 g/100 mL	–
